Assay results as given in patent publication US10710980B2, “Aminopyridine derivatives and their use as selective ALK-2 inhibitors” (priority 2016, dated 2020).

Experiments:
[1] = test system: BMP response element (BRE) luciferase reporter in HuH7 cells, BMP6 stimulated; assay: BMP signaling reporter gene assay; assay type: cell-based; conditions: Homo sapiens, Huh-7; HuH7 BRE-luciferase, BMP6 100 ng/ml, 5 hours; read-out: MSD BMP RGA IC50
[2] = target: T1, wild-type ALK2 (aa172-499) (Homo sapiens (Human), UniProt Q04771); assay: ADPGlo biochemical autophosphorylation assay, ALK2; conditions: 15 μm ATP, 60 min at 32° C.
[3] = target: ALK3 (aa198-525) (Homo sapiens (Human), UniProt P36894); assay: ADPGlo biochemical autophosphorylation assay, ALK3; conditions: 15 μm ATP, 60 min at 32° C.
[4] = target: ALK1 (aa166-493) (Homo sapiens (Human), UniProt P37023); assay: Caliper biochemical peptide phosphorylation assay, ALK1; conditions: 15 μm ATP, 60 min at 30° C.; read-out: ALK1 EPK (IC50)
[5] = target: ALK5 (aa162-503) (Homo sapiens (Human), UniProt P36897); assay: Caliper biochemical peptide phosphorylation assay, ALK5; conditions: 15 μm ATP, 60 min at 30° C.; read-out: ALK5 EPK (IC50)
[6] = target: ALK6 (aa168-495) (Homo sapiens (Human), UniProt O00238); assay: Caliper biochemical peptide phosphorylation assay, ALK6; conditions: 15 μm ATP, 60 min at 30° C.; read-out: ALK6 EPK (IC50)
[7] = target: T1, wild-type ALK2 (aa172-499); assay: Caliper biochemical peptide phosphorylation assay, ALK2; conditions: 15 μm ATP, 60 min at 30° C.; read-out: ALK2 EPK (IC50)

Chain of ALK1 (aa166-493) (P37023 166-493): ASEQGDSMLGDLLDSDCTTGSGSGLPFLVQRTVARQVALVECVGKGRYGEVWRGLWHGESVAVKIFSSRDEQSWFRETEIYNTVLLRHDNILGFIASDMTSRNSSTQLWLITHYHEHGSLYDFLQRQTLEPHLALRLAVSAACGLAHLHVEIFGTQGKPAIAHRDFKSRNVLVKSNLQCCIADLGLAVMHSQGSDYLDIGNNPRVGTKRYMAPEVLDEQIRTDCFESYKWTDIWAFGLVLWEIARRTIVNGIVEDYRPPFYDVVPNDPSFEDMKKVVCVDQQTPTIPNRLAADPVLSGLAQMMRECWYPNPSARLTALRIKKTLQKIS
Chain of ALK3 (aa198-525) (P36894 198-525): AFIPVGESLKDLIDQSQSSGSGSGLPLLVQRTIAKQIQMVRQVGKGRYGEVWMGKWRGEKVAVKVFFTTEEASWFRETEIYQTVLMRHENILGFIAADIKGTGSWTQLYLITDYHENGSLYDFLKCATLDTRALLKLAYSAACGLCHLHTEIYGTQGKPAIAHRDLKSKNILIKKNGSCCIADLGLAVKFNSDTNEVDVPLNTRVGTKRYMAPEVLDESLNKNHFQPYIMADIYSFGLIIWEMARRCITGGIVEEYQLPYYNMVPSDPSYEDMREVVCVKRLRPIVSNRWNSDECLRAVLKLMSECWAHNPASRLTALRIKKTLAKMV
T1 sequence (Q04771 172-499): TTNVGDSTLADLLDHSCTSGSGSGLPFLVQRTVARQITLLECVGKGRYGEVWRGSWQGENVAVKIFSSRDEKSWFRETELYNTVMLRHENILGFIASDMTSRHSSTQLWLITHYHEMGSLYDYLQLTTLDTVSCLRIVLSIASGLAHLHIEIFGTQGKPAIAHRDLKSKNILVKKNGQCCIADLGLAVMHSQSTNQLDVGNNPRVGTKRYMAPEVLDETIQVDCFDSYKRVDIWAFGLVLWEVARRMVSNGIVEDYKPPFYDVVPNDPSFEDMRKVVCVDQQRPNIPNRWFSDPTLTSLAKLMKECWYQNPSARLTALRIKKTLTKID
Chain of ALK6 (aa168-495) (O00238 168-495): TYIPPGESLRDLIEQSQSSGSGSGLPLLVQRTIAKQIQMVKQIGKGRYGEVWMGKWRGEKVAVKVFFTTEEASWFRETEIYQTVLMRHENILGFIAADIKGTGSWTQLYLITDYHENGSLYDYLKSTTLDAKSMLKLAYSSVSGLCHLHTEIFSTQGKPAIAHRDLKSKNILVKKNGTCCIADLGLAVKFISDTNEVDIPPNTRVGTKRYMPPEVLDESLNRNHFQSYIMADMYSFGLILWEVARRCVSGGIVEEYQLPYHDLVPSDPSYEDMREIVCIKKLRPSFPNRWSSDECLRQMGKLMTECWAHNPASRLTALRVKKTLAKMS
Chain of ALK5 (aa162-503) (P36897 162-503): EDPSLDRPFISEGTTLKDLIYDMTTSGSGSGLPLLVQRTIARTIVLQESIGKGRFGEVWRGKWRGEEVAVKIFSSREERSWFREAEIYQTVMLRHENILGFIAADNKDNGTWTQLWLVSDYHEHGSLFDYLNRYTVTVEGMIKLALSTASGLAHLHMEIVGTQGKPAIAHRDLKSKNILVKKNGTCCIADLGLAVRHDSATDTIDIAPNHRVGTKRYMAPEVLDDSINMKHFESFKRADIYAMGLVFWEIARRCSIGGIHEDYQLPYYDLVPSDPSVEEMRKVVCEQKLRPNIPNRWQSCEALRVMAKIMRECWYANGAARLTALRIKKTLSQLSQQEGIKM

SMILES	IC50 [1] [nM]	IC50 [2] [nM]	IC50 [3] [nM]	IC50 [4] [nM]	IC50 [5] [nM]	IC50 [6] [nM]	IC50 [7] [nM]
Nc1ncc(-c2ccc([C@]34C[C@H]3CN(CCN3CCOCC3)C4)cc2)cc1C(=O)NC12CCC(O)(CC1)CC2 [Example 40, 2-amino-N-(4-hydroxybicyclo[2.2.2]octan-1-yl)-5-(4-((1S,5R)-3-(2-morpholinoethyl)-3-azabicyclo[3.1.0]hexan-1-yl)phenyl)nicotinamide]	75	32	995	410	3900	2850	29
CC(C)N1C[C@@H]2C[C@]2(c2ccc(-c3cnc(N)c(C(=O)N[C@H]4CC[C@H](O)CC4)c3)cc2)C1 [Example 9, 2-amino-N-((1r,4S)-4-hydroxycyclohexyl)-5-(4-((1S,5R)-3-isopropyl-3-azabicyclo[3.1.0]hexan-1-yl)phenyl)nicotinamide]	43	11	1600	127	3130	3130	11
Nc1ncc(-c2ccc([C@]34C[C@H]3CN(CCF)C4)cc2)cc1C(=O)N[C@H]1CC[C@H](O)CC1 [Example 11, 2-amino-5-(4-((1S,5R)-3-(2-fluoroethyl)-3-azabicyclo[3.1.0]hexan-1-yl)phenyl)-N-((1r,4S)-4-hydroxycyclohexyl)nicotinamide]	51	9	1100	150	2400	3900	12
Nc1ncc(-c2ccc([C@@]34C[C@@H]3CN(C3CCS(=O)(=O)CC3)C4)cc2)cc1C(=O)N[C@H]1CC[C@H](O)CC1 [Example 44, 2-amino-5-(4-((1R,5S)-3-(1,1-dioxidotetrahydro-2H-thiopyran-4-yl)-3-azabicyclo[3.1.0]hexan-1-yl)phenyl)-N-((1r,4R)-4-hydroxycyclohexyl)nicotinamide]	365	18	430	170	3200	2000	24
Nc1ncc(-c2ccc([C@]34C[C@H]3CN(C(CF)CF)C4)cc2)cc1C(=O)N[C@H]1CC[C@H](O)CC1 [Example 66, 2-amino-5-(4-((1S,5R)-3-(1,3-difluoropropan-2-yl)-3-azabicyclo[3.1.0]hexan-1-yl)phenyl)-N-((1r,4S)-4-hydroxycyclohexyl)nicotinamide]	910	15	1200	190	10000	6200	56
C#CCN1C[C@@H]2C[C@]2(c2ccc(-c3cnc(N)c(C(=O)N[C@H]4CC[C@H](O)CC4)c3)cc2)C1 [Example 53, 2-amino-N-((1r,4S)-4-hydroxycyclohexyl)-5-(4-((1S,5R)-3-(prop-2-yn-1-yl)-3-azabicyclo[3.1.0]hexan-1-yl)phenyl)nicotinamide]	50	13	1200	190	2000	2500	32
C[C@H](c1ccc(-c2cnc(N)c(C(=O)N[C@H]3CC[C@H](O)CC3)c2)c(Cl)c1)N1CC2(COC2)C1 [Example 55, 5-(4-((R)-1-(2-oxa-6-azaspiro[3.3]heptan-6-yl)ethyl)-2-chlorophenyl)-2-amino-N-((1r,4R)-4-hydroxycyclohexyl)nicotinamide]	543	22	2440	627	5030	2900	30
Nc1ncc(-c2ccc([C@]34C[C@H]3CN(CC3COC3)C4)cc2)cc1C(=O)N[C@H]1CC[C@H](O)CC1 [Example 38, 2-amino-N-((1r,4S)-4-hydroxycyclohexyl)-5-(4-((1S,5R)-3-(oxetan-3-ylmethyl)-3-azabicyclo[3.1.0]hexan-1-yl)phenyl)nicotinamide]	58	7	1300	160	1500	2600	28
N#CCCN1C[C@@H]2C[C@]2(c2ccc(-c3cnc(N)c(C(=O)N[C@H]4CC[C@H](O)CC4)c3)cc2)C1 [Example 51, 2-amino-5-(4-((1S,5R)-3-(2-cyanoethyl)-3-azabicyclo[3.1.0]hexan-1-yl)phenyl)-N-((1r,4S)-4-hydroxycyclohexyl)nicotinamide]	64	16	780	120	1400	1700	31
C[C@]1(O)CC[C@H](NC(=O)c2cc(-c3ccc([C@]45C[C@H]4CN(C4CCC(F)(F)CC4)C5)cc3)cnc2N)CC1 [Example 58, 2-amino-5-(4-((1S,5R)-3-(4,4-difluorocyclohexyl)-3-azabicyclo[3.1.0]hexan-1-yl)phenyl)-N-((1r,4S)-4-hydroxy-4-methylcyclohexyl)nicotinamide]	143	25	3720	663	7550	8400	32
CS(=O)(=O)N1CCC(N2C[C@H]3C[C@@]3(c3ccc(-c4cnc(N)c(C(=O)N[C@H]5CC[C@H](O)CC5)c4)cc3)C2)CC1 [Example 1, 2-amino-N-((1r,4R)-4-hydroxycyclohexyl)-5-(4-((1R,5S)-3-(1-(methylsulfonyl)piperidin-4-yl)-3-azabicyclo[3.1.0]hexan-1-yl)phenyl)nicotinamide]	76	5	310	75	560	740	9
Nc1ncc(-c2ccc(C(=O)N3CCOCC3)cc2)cc1C(=O)NC1CCCCC1 [Example 69, 2-amino-N-cyclohexyl-5-(4-(morpholine-4-carbonyl)phenyl)nicotinamide]	1100	41	3100	1100	5200	9000	52
Nc1ncc(-c2ccc([C@]34C[C@H]3CN(CCCN3CCOCC3)C4)cc2)cc1C(=O)N[C@H]1CC[C@H](O)CC1 [Example 5, 2-amino-N-((1r,4S)-4-hydroxycyclohexyl)-5-(4-((1S,5R)-3-(3-morpholinopropyl)-3-azabicyclo[3.1.0]hexan-1-yl)phenyl)nicotinamide]	120	7	1100	81	2200	2500	10
Nc1ncc(-c2ccc([C@@]34C[C@@H]3CN(C3CCN(CC(F)(F)F)CC3)C4)cc2)cc1C(=O)N[C@H]1CC[C@H](O)CC1 [Example 39, 2-amino-N-((1r,4R)-4-hydroxycyclohexyl)-5-(4-((1R,5S)-3-(1-(2,2,2-trifluoroethyl)piperidin-4-yl)-3-azabicyclo[3.1.0]hexan-1-yl)phenyl)nicotinamide]	78	13	830	190	1600	2000	24
